Test results published in paper PMC12718228 (Applied Biochemistry and Biotechnology, 2025).

Tests used:
[1] = biological target: T1, SALDAP (6xHis-SALDAP), salicylaldehyde dehydrogenase (soil metagenome, UniProt Z9QUQ6R3A5); experiment: X-ray crystallography, electron density in active site; type: binding; conditions: two conformations; structure first reported in the group's earlier paper
T1 construct: full-length ORF, N-terminal 6xHis tag kept (pLATE51), E. coli BL21(DE3); homodimer about 110-115 kDa

[2] = biological target: T1, SALDAP (6xHis-SALDAP), salicylaldehyde dehydrogenase; experiment: differential scanning fluorimetry, SYPRO Orange; type: binding; conditions: 50 mM HEPES pH 7.4
Description: differential scanning fluorimetry, SYPRO Orange on SALDAP (6xHis-SALDAP), salicylaldehyde dehydrogenase

[3] = biological target: T1, SALDAP (6xHis-SALDAP), salicylaldehyde dehydrogenase; experiment: NADH formation at […] nm, substrate inhibition fit; type: biochemical; conditions: 50 µM NAD+, 100 mM Tricine pH 8.0, 25 °C, 1.7% DMSO

SMILES	Tm ^oC ([2]; 2 mM ligand with 1.5 mM NAD+) [°C]	further results
O=Cc1ccc2ccccc2c1 [2-naphthaldehyde]		X-ray crystallography, electron density in active site [1]: electron density as seen in the active site of SALDAP after refinement using 2-naphthaldehyde
O=Cc1ccc(O)c(O)c1 [3,4-dihydroxybenzaldehyde]	71.0 ± 0.0	
O=Cc1ccc(O)cc1 [4-hydroxybenzaldehyde]	70.0 ± 0.3	
O=Cc1ccccc1 [Benzaldehyde]		Ki [3]: 5.02 ± 1.84 µM
NC(=O)c1ccc[n+]([C@@H]2O[C@H](COP(=O)(O)OP(=O)(O)OC[C@H]3O[C@@H](n4cnc5c(N)ncnc54)[C@H](O)[C@@H]3O)[C@@H](O)[C@H]2O)c1 [NAD+]		Tm ^oC ([2]; 1.5 mM NAD+ alone): 68.7 ± 0.3 °C
COc1cc(C=O)ccc1O [Vanillin]	69.6 ± 0.4	
